Columns and labels:
[1] = Fluorescence characteristics (max. absorption, excitation and fluorescence wavelengths, molar absorption coefficient); type: physicochemical
Experimental: Fluorescence characteristics are shown below.
(§1) Into 1 mL of purified water, Cy5 for labeling 1 mg of protein (manufactured by GE Healthcare Bioscience Biohealth Co., Ltd.), was dissolved. This solution was diluted 200 times with a 50 mM phosphoric acid buffer solution (pH 7.5) to measure OD value (0.1020).
(§2) Concentration of a Cy5 solution was determined from this OD value and molar absorption coefficient (ε=250,000), [described in a general product catalogue 2006 “7-4” of GE Healthcare Bioscience Co., Ltd.]), (0.408 μM). Then fluorescence was measured using the present solution.

[2] = Relative fluorescence intensity, roughly calculated relative to Cy5 per 1 μM as 100; type: physicochemical
Experimental: Relative fluorescence intensity of a compound of the present invention was roughly calculated relative to fluorescence intensity of Cy5, which is a conventional cyanine dye.
First, fluorescence intensity of Cy5 per 1 μM was measured from fluorescence intensity of Cy5, and relative fluorescence intensity of the compound of the present invention was roughly calculated relative to this fluorescence intensity value as 100.
as §1, §2
Relative fluorescence intensities of the compounds (13), (21), (32) and (38) of the present invention were roughly estimated relative to fluorescence intensity of Cy5 per 1 μM, obtained in Example 8, (1), as 100.
Relative fluorescence intensity of a compound of the present invention was roughly calculated based on fluorescence intensity of Cy5, which is a conventional cyanine dye derivative.
First, fluorescence intensity of Cy5 per 1 μM was measured from fluorescence intensity of Cy5, and relative fluorescence intensity of the compound of the present invention was roughly calculated based on this fluorescence intensity value as 100.
Into 1 mL of purified water, Cy5 (manufactured by GE Healthcare Bioscience Biohealth Co., Ltd.) for labeling 1 mg of protein, was dissolved. This solution was diluted 200 times with a 50 mM phosphoric acid buffer solution (pH 7.5) to measure OD value (0.1020).
Concentration of a Cy5 solution was determined from this OD value and molar absorption coefficient (E=250,000, [described in a general product catalogue 2006 “7-4” of GE Healthcare Bioscience Co., Ltd.]), (0.408 μM).
Then fluorescence of Cy5 was measured using the present solution.
Relative fluorescence intensity of the compound (40) of the present invention, obtained in Example 11 and the compound (43) of the present invention, obtained in Example 12 were roughly calculated, relative to fluorescence intensity per 1 μM of Cy5, obtained in Example 14, (1), as 100.

[3] = described in general product catalogue 2006 of GE Healthcare Bioscience; in M-1cm-1; cited from earlier work
[4] = 0.408 μM solution in 50 mM phosphoric acid buffer solution (pH 7.5)
[5] = Cy5 solution 0.408 μM in 50 mM phosphoric acid buffer solution (pH 7.5)

## CCN1/C(=C/C=C/C=C/C2=[N+](CCCCCC(=O)O)c3ccc(S(=O)(=O)O)cc3C2(C)C)C(C)(C)c2cc(S(=O)(=O)[O-])ccc21 [Cy5]
[1]; [4]
  Max. excitation wavelength [Ex(max)]: 649 nm
  Max. fluorescence wavelength [Em(max)]: 670 nm
[1]; [5]
  Max. excitation wavelength [Ex(max)]: 649 nm
  Max. fluorescence wavelength [Em(max)]: 670 nm
[2]; [5]
  Fluorescence intensity: 3,161
[2]; per 1 μM, from intensity at 0.408 μM
  Fluorescence intensity of Cy5/1 μM: 7,747
[2]; per 1 μM, from the intensity of the 0.408 μM solution
  Fluorescence intensity of Cy5/1 μM: 7,747
[2]; roughly calculated, Cy5 per 1 μM = 100
  Relative fluorescence intensity [relative to fluorescence intensity of Cy5 (1 μM) as 100]: 100
[2]; roughly calculated; Cy5 per 1 μM = 100
  Relative fluorescence intensity [relative to fluorescence intensity of Cy5 (1 μM) as 100]: 100
[3]
  molar absorption coefficient (ε): 250,000

— US8921124B2, “Pyrazole-based cyanine dye” (Wako Pure Chemical Industries, Ltd., priority 2006, dated 2014)
